Laboratory results: ChEMBL document CHEMBL3797196, “Discovery of 3-aminopicolinamides as metabotropic glutamate receptor subtype 4 (mGlu4) positive allosteric modulator warheads engendering CNS exposure and in vivo efficacy” (Bioorg Med Chem Lett, 2016)
Calls of active or inactive are those of the source. No cut-off for these calls is given here.

Columns and labels:
[1] = molecular target: T1, Metabotropic glutamate receptor 4 (Homo sapiens, UniProt Q14833); test: Positive allosteric modulator activity at human mGlu4 receptor expressed in CHO cells expressing Gqi5 by calcium mobilization assay; assay type: functional, cell-based
[2] = molecular target: T1, Metabotropic glutamate receptor 4; test: Positive allosteric modulation of human mGlu4 receptor expressed in CHO cells coexpressing Gqi5 assessed as potentiation of glutamate-induced calcium mobilization at 30 uM relative to (-)-PHCCC; assay type: functional, cell-based
Cytochrome P450 3A4 = Cytochrome P450 3A4 (Homo sapiens, UniProt P08684); test: Inhibition of CYP3A4 in human liver microsomes using 1-hydroxymidazolam as substrate; assay type: ADME
Cytochrome P450 2D6 = Cytochrome P450 2D6 (Homo sapiens, UniProt P10635); test: Inhibition of CYP2D6 in human liver microsomes using dextrophan tartarate as substrate; assay type: ADME
Cytochrome P450 1A2 = molecular target: T2, Cytochrome P450 1A2 (Homo sapiens, UniProt P05177); test: Inhibition of CYP1A2 in human liver microsomes using acetaminophen as substrate; assay type: ADME
T2 sequence (P05177 whole entry): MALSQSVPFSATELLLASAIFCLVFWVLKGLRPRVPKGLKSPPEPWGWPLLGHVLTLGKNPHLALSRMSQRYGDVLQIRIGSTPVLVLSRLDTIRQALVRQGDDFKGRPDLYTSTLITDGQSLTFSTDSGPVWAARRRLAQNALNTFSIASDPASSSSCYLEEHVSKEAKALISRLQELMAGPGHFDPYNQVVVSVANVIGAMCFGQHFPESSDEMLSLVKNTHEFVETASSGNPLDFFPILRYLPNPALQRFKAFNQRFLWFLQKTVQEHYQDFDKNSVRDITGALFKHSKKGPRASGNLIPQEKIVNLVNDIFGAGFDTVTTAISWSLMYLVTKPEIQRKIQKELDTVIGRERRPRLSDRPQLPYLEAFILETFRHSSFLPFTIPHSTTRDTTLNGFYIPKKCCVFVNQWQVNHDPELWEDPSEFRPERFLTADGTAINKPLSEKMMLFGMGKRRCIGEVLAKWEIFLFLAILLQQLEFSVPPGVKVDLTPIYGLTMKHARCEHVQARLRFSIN

Cytochrome P450 2C9 = Cytochrome P450 2C9 (Homo sapiens, UniProt P11712); test: Inhibition of CYP2C9 in human liver microsomes using 4-hydroxydiclofenac as substrate; assay type: ADME
[3] = Clearance in Sprague-Dawley rat by LC/MS analysis; assay type: ADME, organism-based; conditions: in vivo
[4] = Volume of distribution at steady state in Sprague-Dawley rat by LC/MS analysis; assay type: ADME, organism-based; conditions: in vivo, read-out: Vdss
[5] = Half life in Sprague-Dawley rat by LC/MS analysis; assay type: ADME, organism-based; conditions: in vivo
[6] = Ratio of drug level in brain to plasma in rat at 0.25 mg/kg, iv infused at 0.25 hr rate through cassette dosing schedule; assay type: ADME, organism-based
[7] = Binding affinity to human P-gp assessed as efflux ratio by cell based assay; assay type: ADME
Rattus norvegicus [8] = test: Reversal of haloperidol-induced catalepsy in orally dosed Sprague-Dawley rat administered 60 mins after haloperidol-challenge measured after 30 mins; assay type: functional; conditions: po, read-out: MED
Rattus norvegicus [9] = test: Reversal of haloperidol-induced catalepsy in Sprague-Dawley rat at 3 mg/kg, po administered 60 mins after haloperidol-challenge measured after 30 mins; assay type: functional, organism-based
[10] = Drug level in brain of Sprague-Dawley rat model of haloperidol-induced catalepsy at 1 to 10 mg/kg, po administered 60 mins after haloperidol-challenge measured after 30 mins; assay type: ADME, organism-based; conditions: read-out: Drug uptake
Brain [11] = test: Partition coefficient in brain of Sprague-Dawley rat model of haloperidol-induced catalepsy at 1 to 10 mg/kg, po administered 60 mins after haloperidol-challenge measured after 30 mins; assay type: ADME, organism-based; conditions: 0.5 h
[12] = Ratio of drug level in brain of Sprague-Dawley rat model of haloperidol-induced catalepsy at 1 to 10 mg/kg, po to EC50 for positive allosteric modulator activity at rat mGlu4 receptor
[13] = molecular target: Metabotropic glutamate receptor 4 (Rattus norvegicus, UniProt P31423); test: Positive allosteric modulator activity at rat mGlu4 receptor
[14] = Intrinsic clearance in rat hepatic microsomes; assay type: ADME, Liver; conditions: read-out: CLH
[15] = Intrinsic clearance in human hepatic microsomes; assay type: ADME, Liver; conditions: read-out: CLH
[16] = Fraction unbound in human plasma; assay type: ADME, cell-free
Plasma = test: Fraction unbound in rat plasma; assay type: ADME, cell-free
Rattus norvegicus [17] = test: Reversal of haloperidol-induced catalepsy in Sprague-Dawley rat at 1 mg/kg, po administered 60 mins after haloperidol-challenge measured after 30 mins; assay type: functional, organism-based
Rattus norvegicus [18] = test: Reversal of haloperidol-induced catalepsy in Sprague-Dawley rat at 10 mg/kg, po administered 60 mins after haloperidol-challenge measured after 30 mins; assay type: functional, organism-based
[19] = Drug level in brain of Sprague-Dawley rat model of haloperidol-induced catalepsy at 1 mg/kg, po administered 60 mins after haloperidol-challenge measured after 30 mins; assay type: ADME, organism-based; conditions: read-out: Drug uptake
Brain [20] = test: Partition coefficient in brain of Sprague-Dawley rat model of haloperidol-induced catalepsy at 1 mg/kg, po administered 60 mins after haloperidol-challenge measured after 30 mins; assay type: ADME, organism-based; conditions: 0.5 h
[21] = Ratio of drug level in brain of Sprague-Dawley rat model of haloperidol-induced catalepsy at 1 mg/kg, po to EC50 for positive allosteric modulator activity at rat mGlu4 receptor

T1 sequence (Q14833 whole entry): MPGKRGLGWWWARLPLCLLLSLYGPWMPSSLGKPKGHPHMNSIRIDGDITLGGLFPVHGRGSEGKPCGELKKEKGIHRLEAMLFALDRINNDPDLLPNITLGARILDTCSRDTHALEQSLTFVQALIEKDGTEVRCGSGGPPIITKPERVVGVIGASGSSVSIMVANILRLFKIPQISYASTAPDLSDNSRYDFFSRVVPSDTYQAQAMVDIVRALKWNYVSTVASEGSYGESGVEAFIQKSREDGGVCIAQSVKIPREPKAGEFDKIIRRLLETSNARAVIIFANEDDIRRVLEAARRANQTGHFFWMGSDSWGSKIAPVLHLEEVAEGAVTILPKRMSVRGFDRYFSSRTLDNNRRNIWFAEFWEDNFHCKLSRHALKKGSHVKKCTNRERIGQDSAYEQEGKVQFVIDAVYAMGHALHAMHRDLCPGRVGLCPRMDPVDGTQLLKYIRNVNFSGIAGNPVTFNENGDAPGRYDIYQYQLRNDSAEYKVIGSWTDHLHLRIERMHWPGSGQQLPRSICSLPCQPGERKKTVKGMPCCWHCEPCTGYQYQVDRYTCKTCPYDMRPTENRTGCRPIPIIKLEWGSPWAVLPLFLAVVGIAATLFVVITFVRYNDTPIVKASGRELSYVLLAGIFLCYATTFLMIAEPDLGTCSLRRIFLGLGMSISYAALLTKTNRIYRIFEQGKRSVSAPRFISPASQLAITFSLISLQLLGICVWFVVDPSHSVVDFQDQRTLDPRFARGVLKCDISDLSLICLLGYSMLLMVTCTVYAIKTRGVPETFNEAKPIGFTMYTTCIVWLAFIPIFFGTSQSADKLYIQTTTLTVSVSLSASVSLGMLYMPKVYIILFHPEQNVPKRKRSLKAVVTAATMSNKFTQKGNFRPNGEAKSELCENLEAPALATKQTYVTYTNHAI
Sequence of Cytochrome P450 3A4 (P08684 whole entry): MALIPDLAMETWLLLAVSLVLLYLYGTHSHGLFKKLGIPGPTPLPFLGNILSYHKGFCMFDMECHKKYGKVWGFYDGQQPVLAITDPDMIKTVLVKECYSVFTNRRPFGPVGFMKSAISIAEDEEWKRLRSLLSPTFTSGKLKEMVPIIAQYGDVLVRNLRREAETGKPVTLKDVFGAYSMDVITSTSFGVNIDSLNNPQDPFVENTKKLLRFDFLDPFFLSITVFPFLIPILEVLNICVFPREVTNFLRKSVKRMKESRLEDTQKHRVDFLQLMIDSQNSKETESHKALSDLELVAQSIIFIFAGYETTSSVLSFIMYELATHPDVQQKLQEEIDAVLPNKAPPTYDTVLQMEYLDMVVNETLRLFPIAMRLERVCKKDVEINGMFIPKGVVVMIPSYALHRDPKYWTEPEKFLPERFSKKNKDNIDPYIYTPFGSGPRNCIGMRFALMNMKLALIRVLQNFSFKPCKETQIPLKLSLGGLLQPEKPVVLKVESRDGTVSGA
Sequence of Cytochrome P450 2C9 (P11712 whole entry): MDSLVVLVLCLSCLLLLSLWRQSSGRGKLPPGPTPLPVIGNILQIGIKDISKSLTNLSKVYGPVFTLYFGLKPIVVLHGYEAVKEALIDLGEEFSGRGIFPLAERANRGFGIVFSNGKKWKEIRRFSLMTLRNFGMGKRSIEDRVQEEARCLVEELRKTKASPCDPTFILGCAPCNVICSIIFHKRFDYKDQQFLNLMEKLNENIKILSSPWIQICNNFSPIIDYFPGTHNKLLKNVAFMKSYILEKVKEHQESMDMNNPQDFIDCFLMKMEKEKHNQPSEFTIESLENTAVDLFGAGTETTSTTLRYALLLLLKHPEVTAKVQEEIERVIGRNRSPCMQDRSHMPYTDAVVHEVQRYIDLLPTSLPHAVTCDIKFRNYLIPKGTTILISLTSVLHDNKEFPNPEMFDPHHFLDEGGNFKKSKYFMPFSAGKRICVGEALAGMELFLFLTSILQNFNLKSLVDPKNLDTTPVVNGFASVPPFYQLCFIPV
Sequence of Cytochrome P450 2D6 (P10635 whole entry): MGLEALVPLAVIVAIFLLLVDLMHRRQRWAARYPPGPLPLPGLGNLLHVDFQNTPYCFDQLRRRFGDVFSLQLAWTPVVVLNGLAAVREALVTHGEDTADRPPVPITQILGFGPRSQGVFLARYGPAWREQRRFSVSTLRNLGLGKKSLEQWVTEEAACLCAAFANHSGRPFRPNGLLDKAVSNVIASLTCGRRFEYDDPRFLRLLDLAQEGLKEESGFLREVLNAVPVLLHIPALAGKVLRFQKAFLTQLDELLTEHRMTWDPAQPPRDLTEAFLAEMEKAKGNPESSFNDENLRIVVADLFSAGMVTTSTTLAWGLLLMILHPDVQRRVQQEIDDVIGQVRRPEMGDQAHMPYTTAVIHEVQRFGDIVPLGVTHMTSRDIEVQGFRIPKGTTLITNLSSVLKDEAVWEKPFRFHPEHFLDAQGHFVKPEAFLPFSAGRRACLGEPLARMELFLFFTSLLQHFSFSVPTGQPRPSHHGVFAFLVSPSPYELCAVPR
Sequence of Metabotropic glutamate receptor 4 (Rattus norvegicus, UniProt P31423) (P31423 whole entry): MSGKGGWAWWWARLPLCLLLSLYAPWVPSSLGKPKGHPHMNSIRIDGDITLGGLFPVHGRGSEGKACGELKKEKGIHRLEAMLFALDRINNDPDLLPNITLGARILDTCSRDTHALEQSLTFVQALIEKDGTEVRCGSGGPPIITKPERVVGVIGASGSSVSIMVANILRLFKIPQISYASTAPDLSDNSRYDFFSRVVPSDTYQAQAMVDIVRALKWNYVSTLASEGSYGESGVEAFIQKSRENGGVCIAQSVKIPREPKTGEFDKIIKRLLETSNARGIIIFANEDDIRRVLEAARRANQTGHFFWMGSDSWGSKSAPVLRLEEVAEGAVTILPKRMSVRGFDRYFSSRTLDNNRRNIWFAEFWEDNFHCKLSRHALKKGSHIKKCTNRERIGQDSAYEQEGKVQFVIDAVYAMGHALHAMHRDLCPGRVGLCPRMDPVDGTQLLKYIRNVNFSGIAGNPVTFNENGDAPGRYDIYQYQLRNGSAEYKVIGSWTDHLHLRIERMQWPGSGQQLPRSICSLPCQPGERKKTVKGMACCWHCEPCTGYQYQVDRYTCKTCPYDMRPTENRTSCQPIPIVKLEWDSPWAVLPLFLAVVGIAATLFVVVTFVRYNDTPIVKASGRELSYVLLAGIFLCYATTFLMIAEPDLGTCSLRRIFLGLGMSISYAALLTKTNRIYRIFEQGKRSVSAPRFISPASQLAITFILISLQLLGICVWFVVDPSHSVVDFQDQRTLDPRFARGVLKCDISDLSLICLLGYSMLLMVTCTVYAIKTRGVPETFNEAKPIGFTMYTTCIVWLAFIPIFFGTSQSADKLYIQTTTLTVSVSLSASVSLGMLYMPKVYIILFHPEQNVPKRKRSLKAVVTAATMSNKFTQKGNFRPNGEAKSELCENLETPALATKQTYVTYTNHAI

Row | SMILES | EC50 ([1]; read-out: pEC50 (converted)) [nM] | %max [2] [%] | EC50 ([1]; read-out: EC50) [nM] | also measured
1 | Nc1cccnc1C(=O)Nc1ccc(N2CC3(CCCCC3)CC2=O)c(Cl)c1 | 1290 | 52 | – | –
2 | Nc1cccnc1C(=O)Nc1cccc(Cl)c1 | 575 | 88.1 | 587 | –
3 | Nc1cccnc1C(=O)Nc1ccc(N2CC3(CCCC3)CC2=O)c(Cl)c1 | – | 13.8 | > 10000 | –
4 | COc1ccc2c(c1)C(=O)N(c1ccc(NC(=O)c3ncccc3N)cc1Cl)C2 | 316 | 71.7 | – | –
5 | Nc1cccnc1C(=O)Nc1ccc(N2CC(c3cccnc3)CC2=O)c(Cl)c1 (stereo not given) | 2510 | 92.8 | – | –
6 | Nc1cccnc1C(=O)Nc1ccc(N2CCc3ccccc3C2=O)c(Cl)c1 | 912 | 60.7 | – | –
7 | Nc1cccnc1C(=O)Nc1ccc(N2C(=O)C3CCC2C3)c(Cl)c1 (stereo not given) | – | 47.7 | > 10000 | –
8 | Nc1cccnc1C(=O)Nc1ccc(N2CC(c3c(F)cccc3Cl)CC2=O)c(Cl)c1 (stereo not given) | 1860 | 75.9 | – | –
9 | O=C(Nc1ccc(N2C(=O)c3ccccc3C2=O)c(Cl)c1)c1ncccc1O | – | 115 | 125 | –
10 | Cc1ncc(Oc2ccc(NC(=O)c3ncccc3N)cc2Cl)cn1 | 1350 | 89.8 | – | –
11 | Nc1cccnc1C(=O)Nc1ccc(N2Cc3ccccc3CC2=O)c(Cl)c1 | 2190 | 63.2 | – | –
12 | Nc1cccnc1C(=O)Nc1ccc(N2CC(Cc3ccccc3)CC2=O)c(Cl)c1 (stereo not given) | 759 | 45.3 | – | –
13 | CC(C)CC1CC(=O)N(c2ccc(NC(=O)c3ncccc3N)cc2Cl)C1 (stereo not given) | 1620 | 74.5 | – | –
14 | Nc1cccnc1C(=O)Nc1ccc(N2Cc3ncccc3C2=O)c(Cl)c1 | 1260 | 68.9 | – | –
15 | CCc1cnc(Oc2ccc(NC(=O)c3ncccc3N)cc2Cl)nc1 | 64.6 | 97.9 | – | IC50 (Cytochrome P450 3A4): 21100 nM; IC50 (Cytochrome P450 2D6): > 30000 nM; IC50 (Cytochrome P450 1A2): 2600 nM; IC50 (Cytochrome P450 2C9): > 30000 nM; clearance [3]: 13.7 mL/min/kg; Vd [4]: 0.86 L/kg; half-life [5]: 1.5 h; Kp [6]: 0.36; Ratio [7]: 1.9; minimal effective dose (Rattus norvegicus [8]): 1 mg/kg; Activity (Rattus norvegicus [9]): Active; concentration at 0.5 h [10]: 172 nM; Kp (Brain [11]): 0.2; Ratio [12]: 3.5; EC50 [13]: 46.6 nM; CLint scaled [14]: 46.1 mL/min/kg; CLint scaled [15]: 17.7 mL/min/kg; Fu [16]: 0.004; Fu (Plasma): 0.004
16 | Cc1cccc2c1C(=O)N(c1ccc(NC(=O)c3ncccc3N)cc1Cl)C2=O | 692 | 122 | – | –
17 | Nc1cccnc1C(=O)Nc1ccc(N2Cc3ccc(Cl)cc3C2=O)c(Cl)c1 | – | 42.3 | > 10000 | –
18 | CC1c2ccccc2C(=O)N1c1ccc(NC(=O)c2ncccc2N)cc1Cl (stereo not given) | 3980 | 76.8 | – | –
19 | CCc1cnc(Oc2ccc(NC(=O)c3nccnc3N)cc2Cl)nc1 | – | 104 | 296 | –
20 | CCc1cnc(Oc2ccc(NC(=O)c3ccncc3N)cc2Cl)nc1 | – | 44.2 | > 10000 | –
21 | CC1(C2CC2)CC(=O)N(c2ccc(NC(=O)c3ncccc3N)cc2Cl)C1 (stereo not given) | 2820 | 66.2 | – | –
22 | Fc1ccc(Nc2n[nH]c3cccnc23)cc1Cl | – | – | – | Activity (Rattus norvegicus [17]): Active; Activity (Rattus norvegicus [18]): Active
23 | CC1(C)CC(=O)N(c2ccc(NC(=O)c3ncccc3N)cc2Cl)C1 | – | 12.7 | > 10000 | –
24 | Nc1cccnc1C(=O)Nc1ccc(N2Cc3ccccc3C2=O)c(Cl)c1 | 234 | 43.9 | – | –
25 | Nc1cccnc1C(=O)Nc1ccc(N2CCCC2=O)c(Cl)c1 | – | 39.6 | > 10000 | –
26 | Nc1cccnc1C(=O)Nc1ccc(N2C(=O)c3ccccc3C2=O)c(Cl)c1 | 95.5 | 89.1 | – | IC50 (Cytochrome P450 3A4): > 30000 nM; IC50 (Cytochrome P450 2D6): > 30000 nM; IC50 (Cytochrome P450 1A2): > 30000 nM; IC50 (Cytochrome P450 2C9): 7200 nM; clearance [3]: 3.98 mL/min/kg; Vd [4]: 0.85 L/kg; half-life [5]: 3.7 h; Kp [6]: 1.31; Ratio [7]: 1.2; Activity (Rattus norvegicus [17]): Active; concentration at 0.5 h [19]: 334 nM; Kp (Brain [20]): 0.3; Ratio [21]: 2; EC50 [13]: 128 nM; CLint scaled [14]: 51 mL/min/kg; CLint scaled [15]: 5.8 mL/min/kg; Fu [16]: 0.007; Fu (Plasma): 0.003
